Assay [1] concerns the target T1, human B1R (bradykinin receptor 1) (Homo sapiens, UniProt P46663).
T1 construct: expressed in transfected cells; host or cells: CHO K1 cells
T1 sequence (P46663 1-353): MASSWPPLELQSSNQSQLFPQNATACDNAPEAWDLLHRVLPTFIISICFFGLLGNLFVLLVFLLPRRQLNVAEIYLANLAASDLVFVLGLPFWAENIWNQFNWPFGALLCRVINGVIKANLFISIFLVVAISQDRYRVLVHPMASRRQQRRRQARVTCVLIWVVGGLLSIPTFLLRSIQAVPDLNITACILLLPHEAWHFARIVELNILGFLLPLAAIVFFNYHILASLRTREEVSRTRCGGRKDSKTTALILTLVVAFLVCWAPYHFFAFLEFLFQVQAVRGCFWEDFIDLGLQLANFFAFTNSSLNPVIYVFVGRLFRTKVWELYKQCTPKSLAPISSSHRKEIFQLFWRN
The assay is described as follows: FLIPR Ca2+ assay (Fluo-4) on CHO K1 cells stably transfected with the human B1R gene (hB1R cells): % inhibition at 10 μM / IC50, agonist Lys-Des-Arg9-bradykinin. The note with it: for inhibition at 10 µM: CHO-K1, human B1R. It counts as cell-based. The gist of the method: (§1)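 Cells were Fluo-4-loaded, then test compound (10 μM, or a concentration series for IC50) was preincubated 10–20 min before agonist challenge at EC80: Lys-Des-Arg9-bradykinin for hB1R, Des-Arg9-bradykinin for rB1R. Peak Ca2+ fluorescence (ex 488/em 540 nm) gave % inhibition versus maximal achievable inhibition.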

In assay [2] the target is T2, rat B1R (bradykinin receptor 1) (Rattus norvegicus, UniProt P97583).
T2 construct: expressed in transfected cells; host or cells: CHO K1 cells
T2 sequence (P97583 1-337): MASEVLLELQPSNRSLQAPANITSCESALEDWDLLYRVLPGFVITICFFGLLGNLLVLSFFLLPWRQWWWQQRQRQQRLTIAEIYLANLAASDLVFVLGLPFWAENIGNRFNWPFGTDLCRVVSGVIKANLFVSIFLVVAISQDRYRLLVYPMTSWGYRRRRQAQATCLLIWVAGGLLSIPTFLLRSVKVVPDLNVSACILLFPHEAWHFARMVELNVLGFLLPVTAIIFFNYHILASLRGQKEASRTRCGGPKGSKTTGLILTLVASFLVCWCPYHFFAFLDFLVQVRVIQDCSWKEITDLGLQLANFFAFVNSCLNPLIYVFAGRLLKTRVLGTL
The assay is described as follows: FLIPR Ca2+ assay (Fluo-4) on CHO K1 cells stably transfected with the B1R gene of the rat (rB1R cells): % inhibition at 10 μM / IC50, agonist Des-Arg9-bradykinin. Format: cell-based. Conditions: for inhibition at 10 µM: CHO-K1, rat B1R. A digest of the protocol:
as §1

These results are taken from patent US8455475B2 (Gruenenthal GmbH, priority 2009, dated 2013).

One may read the inhibition as the relative decrease from the control value, in per cent. As for `O=C(NC1CCc2ccc(C(=O)N3CCC4(CC3)CCN(c3ccc(C(F)(F)F)cc3)CC4)cc21)c1ccc(F)cc1Cl` (stereo not drawn) [IND_CC-274, 2-Chloro-4-fluoro-N-[6-[9-[4-(trifluoromethyl)-phenyl]-3,9-diazaspiro[5.5]undecane-3-carbonyl]-2,3-dihydro-1H-inden-1-yl]-benzamide], the inhibition at 10 µM turned out to be 8% in assay [1] and 102% in assay [2].

On to `CC1(C)Cc2ccc(C(=O)N3CCC4(CC3)CCN(c3ccncc3)CC4)cc2C1NC(=O)c1ccc(F)cc1Cl` (stereo not drawn) [IND_CC-275, 2-Chloro-N-[2,2-dimethyl-6-(9-pyridin-4-yl-3,9-diazaspiro[5.5]undecane-3-carbonyl)-1,3-dihydro-inden-1-yl]-4-fluoro-benzamide], for which the results for the inhibition at 10 µM in assay [1] and in assay [2] were 100% and 107%, respectively.

`CC1(C)CC(NC(=O)c2ccc(F)cc2Cl)c2cc(C(=O)N3CCC4(CC3)CCN(c3ccncc3)CC4)ccc21` (stereo not drawn) [IND_CC-276, 2-Chloro-N-[3,3-dimethyl-6-(3-pyridin-4-yl-3,9-diazaspiro[5.5]undecane-9-carbonyl)-1,2-dihydro-inden-1-yl]-4-fluoro-benzamide]: the figures for the inhibition at 10 µM in assay [1] and in assay [2] were 100% and 107%, respectively.

Take `O=C(NC1CCc2ccc(C(=O)N3CCC4(CCN(c5ccncc5)CC4)C3)cc21)c1ccc(F)cc1Cl` (stereo not drawn) [IND_CC-277, 2-Chloro-4-fluoro-N-[6-(8-pyridin-4-yl-2,8-diazaspiro[4.5]decane-2-carbonyl)-2,3-dihydro-1H-inden-1-yl]-benzamide]: the inhibition at 10 µM turned out to be 100% in assay [1] and 105% in assay [2].

As to `O=C(NC1CCc2ccc(C(=O)N3CCC4(CC3)CCN(c3ccc(C(F)(F)F)cc3)CC4)cc21)c1c(F)cccc1Cl` (stereo not drawn) [IND_CC-278, 2-Chloro-6-fluoro-N-[6-[9-[4-(trifluoromethyl)-phenyl]-3,9-diazaspiro[5.5]undecane-3-carbonyl]-2,3-dihydro-1H-inden-1-yl]-benzamide], the inhibition at 10 µM in assay [1] was found to be 35%; in assay [2] it was 101%.

Turning to `CC1(C)CC(NC(=O)c2c(F)cccc2Cl)c2cc(C(=O)N3CCC4(CC3)CCN(c3ccncc3)CC4)ccc21` (stereo not drawn) [IND_CC-279, 2-Chloro-N-[3,3-dimethyl-6-(3-pyridin-4-yl-3,9-diazaspiro[5.5]undecane-9-carbonyl)-1,2-dihydro-inden-1-yl]-6-fluoro-benzamide], the inhibition at 10 µM in assay [1] is 100%; in assay [2] it was 106%.

Regarding `O=C(NC1CCc2ccc(C(=O)N3CCC4(CCN(c5ccncc5)CC4)C3)cc21)c1c(F)cccc1Cl` (stereo not drawn) [IND_CC-280, 2-Chloro-6-fluoro-N-[6-(8-pyridin-4-yl-2,8-diazaspiro[4.5]decane-2-carbonyl)-2,3-dihydro-1H-inden-1-yl]-benzamide], the figures for the inhibition at 10 µM in assay [1] and in assay [2] were 100% and 108%, respectively.

Take `O=C(NC1CCc2ccc(C(=O)N3CCC4(CC3)CCN(c3ccc(C(F)(F)F)cc3)CC4)cc21)c1cccc(Cl)c1Cl` (stereo not drawn) [IND_CC-281, 2,3-Dichloro-N-[6-[9-[4-(trifluoromethyl)-phenyl]-3,9-diazaspiro[5.5]undecane-3-carbonyl]-2,3-dihydro-1H-inden-1-yl]-benzamide]: the inhibition at 10 µM worked out at 84% in assay [1] and 105% in assay [2].

Consider `CC1(C)Cc2ccc(C(=O)N3CCC4(CC3)CCN(c3ccncc3)CC4)cc2C1NC(=O)c1cccc(Cl)c1Cl` (stereo not drawn) [IND_CC-282, 2,3-Dichloro-N-[2,2-dimethyl-6-(9-pyridin-4-yl-3,9-diazaspiro[5.5]undecane-3-carbonyl)-1,3-dihydro-inden-1-yl]-benzamide], for which the inhibition at 10 µM in assay [1] turned out to be 69%; in assay [2], 107%.

As for `CC1(C)CC(NC(=O)c2cccc(Cl)c2Cl)c2cc(C(=O)N3CCC4(CC3)CCN(c3ccncc3)CC4)ccc21` (stereo not drawn) [IND_CC-283, 2,3-Dichloro-N-[3,3-dimethyl-6-(3-pyridin-4-yl-3,9-diazaspiro[5.5]undecane-9-carbonyl)-1,2-dihydro-inden-1-yl]-benzamide], the inhibition at 10 µM worked out at 96% in assay [1] and 107% in assay [2].

On to `O=C(NC1CCc2ccc(C(=O)N3CCC4(CCN(c5ccncc5)CC4)C3)cc21)c1cccc(Cl)c1Cl` (stereo not drawn) [IND_CC-284, 2,3-Dichloro-N-[6-(8-pyridin-4-yl-2,8-diazaspiro[4.5]decane-2-carbonyl)-2,3-dihydro-1H-inden-1-yl]-benzamide], for which the inhibition at 10 µM in assay [1] came out at 100%; in assay [2], 107%.

As for `CC1(C)Cc2ccc(C(=O)N3CCC4(CC3)CCN(c3ccncc3)CC4)cc2C1NC(=O)c1c(Cl)cccc1Cl` (stereo not drawn) [IND_CC-287, 2,6-Dichloro-N-[2,2-dimethyl-6-(9-pyridin-4-yl-3,9-diazaspiro[5.5]undecane-3-carbonyl)-1,3-dihydro-inden-1-yl]-benzamide], the figures for the inhibition at 10 µM in assay [1] and in assay [2] were 99% and 105%, respectively.

For the molecule `CC1(C)CC(NC(=O)c2c(Cl)cccc2Cl)c2cc(C(=O)N3CCC4(CC3)CCN(c3ccncc3)CC4)ccc21` (stereo not drawn) [IND_CC-288, 2,6-Dichloro-N-[3,3-dimethyl-6-(3-pyridin-4-yl-3,9-diazaspiro[5.5]undecane-9-carbonyl)-1,2-dihydro-inden-1-yl]-benzamide], the inhibition at 10 µM in assay [1] is 100%; in assay [2], 106%.

For `O=C(NC1CCc2ccc(C(=O)N3CCC4(CCN(c5ccncc5)CC4)C3)cc21)c1c(Cl)cccc1Cl` (stereo not drawn) [IND_CC-289, 2,6-Dichloro-N-[6-(8-pyridin-4-yl-2,8-diazaspiro[4.5]decane-2-carbonyl)-2,3-dihydro-1H-inden-1-yl]-benzamide], the inhibition at 10 µM came out at 100% in assay [1] and 104% in assay [2].

Take `O=C(NC1CCc2ccc(C(=O)N3CCC4(CC3)CCN(c3ccc(C(F)(F)F)cc3)CC4)cc21)c1ccccc1Cl` (stereo not drawn) [IND_CC-290, 2-Chloro-N-[6-[9-[4-(trifluoromethyl)-phenyl]-3,9-diazaspiro[5.5]undecane-3-carbonyl]-2,3-dihydro-1H-inden-1-yl]-benzamide]: the inhibition at 10 µM in assay [1] is 35%; in assay [2], 100%.

With `CC1(C)Cc2ccc(C(=O)N3CCC4(CC3)CCN(c3ccncc3)CC4)cc2C1NC(=O)c1ccccc1Cl` (stereo not drawn) [IND_CC-291, 2-Chloro-N-[2,2-dimethyl-6-(9-pyridin-4-yl-3,9-diazaspiro[5.5]undecane-3-carbonyl)-1,3-dihydro-inden-1-yl]-benzamide], the inhibition at 10 µM in assay [1] stood at 98%; in assay [2], 104%.

As to `CC1(C)CC(NC(=O)c2ccccc2Cl)c2cc(C(=O)N3CCC4(CC3)CCN(c3ccncc3)CC4)ccc21` (stereo not drawn) [IND_CC-292, 2-Chloro-N-[3,3-dimethyl-6-(3-pyridin-4-yl-3,9-diazaspiro[5.5]undecane-9-carbonyl)-1,2-dihydro-inden-1-yl]-benzamide], the inhibition at 10 µM in assay [1] came to 99%; in assay [2], 105%.

For the molecule `O=C(NC1CCc2ccc(C(=O)N3CCC4(CCN(c5ccncc5)CC4)C3)cc21)c1ccccc1Cl` (stereo not drawn) [IND_CC-293, 2-Chloro-N-[6-(8-pyridin-4-yl-2,8-diazaspiro[4.5]decane-2-carbonyl)-2,3-dihydro-1H-inden-1-yl]-benzamide], the “% Inhibition (human B1R) at 10 μM” value in assay [1] (human B1R) worked out at 100%. In addition, the “% Inhibition (rat B1R) at 10 μM” value in assay [2] (rat B1R, 10 µM) stood at 106%.
